This passage reports solubility, Activity and inhibition results from ChEMBL document CHEMBL4190168 (Medchemcomm, 2016).

The structures appear in SMILES notation. Active and inactive are the calls of the source. The rule behind the calls is not given here.

Test system in the first series: not listed separately
Nature of the series: Solubility of the compound in water. The format is physicochemical.
Conditions: not given
As for `Cc1nc(CNCCCCNCc2cc3c4ccccc4n(C)c3c(C)n2)cc2c3ccccc3n(C)c12.Cl`, the solubility is more than 10000 µg/mL.

`Cc1nc(CNCCCNCc2cc3c4ccccc4n(Cc4cccc(Cl)c4)c3c(C)n2)cc2c3ccccc3n(Cc3cccc(Cl)c3)c12.Cl`: the solubility was more than 10000 µg/mL.

For `Cc1nc(CNCCCCNCc2cc3c4ccccc4n(Cc4ccccc4)c3c(C)n2)cc2c3ccccc3n(Cc3ccccc3)c12.Cl`, the solubility was more than 10000 µg/mL.

As to `Cl.Cn1c2ccccc2c2cc(CNCCCCCCNCc3cc4c5ccccc5n(C)c4c(-c4ccccc4)n3)nc(-c3ccccc3)c21`, the solubility is more than 10000 µg/mL.

On to `Cc1nc(CNCCCNCc2cc3c4ccccc4n(CCCc4ccccc4)c3c(C)n2)cc2c3ccccc3n(CCCc3ccccc3)c12.Cl`, for which the solubility was more than 10000 µg/mL.

For `Cc1nc(CNCCCCNCc2cc3c4ccccc4n(C(C)C)c3c(C)n2)cc2c3ccccc3n(C(C)C)c12.Cl`, the solubility was more than 10000 µg/mL.

Consider `Cc1nc(CNCCCCCCNCc2cc3c4ccccc4n(C)c3c(C)n2)cc2c3ccccc3n(C)c12.Cl`, for which the solubility is more than 10000 µg/mL.

`CCCCn1c2ccccc2c2cc(CNCCCNCc3cc4c5ccccc5n(CCCC)c4c(-c4ccc(Cl)cc4)n3)nc(-c3ccc(Cl)cc3)c21.Cl` registered a solubility of more than 10000 µg/mL.

Take `Cc1nc(CNCCCNCc2cc3c4ccccc4n(CC(C)C)c3c(C)n2)cc2c3ccccc3n(CC(C)C)c12.Cl`: the solubility was more than 10000 µg/mL.

`Cl.Cn1c2ccccc2c2cc(CNCCCCNCc3cc4c5ccccc5n(C)c4c(-c4ccccc4)n3)nc(-c3ccccc3)c21` gave a solubility of more than 10000 µg/mL.

In turn, `Cl.Clc1ccc(-c2nc(CNCCCCCNCc3cc4c5ccccc5n(Cc5ccccc5)c4c(-c4ccc(Cl)cc4)n3)cc3c4ccccc4n(Cc4ccccc4)c23)cc1` displayed a solubility of more than 10000 µg/mL.

As for `Cl.c1ccc(Cn2c3ccccc3c3cc(CNCCCCCCNCc4cc5c6ccccc6n(Cc6ccccc6)c5c(-c5ccccc5)n4)nc(-c4ccccc4)c32)cc1`, the solubility is more than 10000 µg/mL.

`CCCCn1c2ccccc2c2cc(CNCCCCNCc3cc4c5ccccc5n(CCCC)c4c(-c4ccc(Cl)cc4)n3)nc(-c3ccc(Cl)cc3)c21.Cl` displayed a solubility of more than 10000 µg/mL.

The test system of the next series is Chorioallantoic membrane. In words: Antiangiogenic activity in chicken fertilized egg chorioallantoic membrane at 30 uM after 48 hrs by microscopic analysis. The class given is functional, tissue-based. The conditions noted are these: Gallus gallus.
Turning to `COc1ccc(-c2nc(CNCCCCCNCc3cc4c5ccccc5n(C)c4c(-c4ccc(OC)cc4)n3)cc3c4ccccc4n(C)c23)cc1`, the outcome was Active.

The test system of a further series is EA.hy 926. Nature of the series: Antiangiogenic activity in human EAhy926 cells assessed as inhibition of VEGF-induced capillary tube formation after 24 hrs by matrigel based phase contrast microscopic analysis. The class given is functional, cell-based.
Conditions: not given
`COc1ccc(-c2nc(CNCCCCCNCc3cc4c5ccccc5n(C)c4c(-c4ccc(OC)cc4)n3)cc3c4ccccc4n(C)c23)cc1`: the inhibition entry was “Dose-dependent effect”.

Another series has as its system EA.hy 926. In words: Anti-migratory activity against human EAhy926 cells assessed as inhibition of VEGF-induced cell migration towards wound area after 24 hrs by phase contrast microscopic analysis. The format is functional, cell-based.
Conditions: not given
Turning to `COc1ccc(-c2nc(CNCCCCCNCc3cc4c5ccccc5n(C)c4c(-c4ccc(OC)cc4)n3)cc3c4ccccc4n(C)c23)cc1`, the inhibition result is “Dose-dependent effect”.

As a reminder, the solubility is the dissolved amount per volume that the medium holds. A high value points to much dissolved substance.
